This note sets out measurements from ChEMBL document CHEMBL1909046, “DrugMatrix in vitro pharmacology data”.

One data set deals with T1, Substance-K receptor (Homo sapiens, UniProt P21452).
T1 sequence (P21452 whole entry): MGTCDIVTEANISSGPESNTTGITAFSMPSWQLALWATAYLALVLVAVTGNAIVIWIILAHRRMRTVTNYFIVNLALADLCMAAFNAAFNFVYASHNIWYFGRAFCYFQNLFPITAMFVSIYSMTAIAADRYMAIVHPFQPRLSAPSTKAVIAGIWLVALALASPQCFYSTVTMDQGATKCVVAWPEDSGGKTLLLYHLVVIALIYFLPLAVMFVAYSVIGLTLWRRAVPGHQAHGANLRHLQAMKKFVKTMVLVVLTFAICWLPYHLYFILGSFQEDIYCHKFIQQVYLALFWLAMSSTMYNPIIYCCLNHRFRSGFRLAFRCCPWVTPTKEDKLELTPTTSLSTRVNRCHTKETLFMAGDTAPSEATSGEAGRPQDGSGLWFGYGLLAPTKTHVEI
Type of data set: cell membranes, CHO, Membrane.

The target of data set [1] is T2, Neuropeptide Y receptor type 2 (Homo sapiens, UniProt P49146). Note: in other assays of this panel Not Active means under 50% inhibition at 10 µM.
T2 sequence (P49146 whole entry): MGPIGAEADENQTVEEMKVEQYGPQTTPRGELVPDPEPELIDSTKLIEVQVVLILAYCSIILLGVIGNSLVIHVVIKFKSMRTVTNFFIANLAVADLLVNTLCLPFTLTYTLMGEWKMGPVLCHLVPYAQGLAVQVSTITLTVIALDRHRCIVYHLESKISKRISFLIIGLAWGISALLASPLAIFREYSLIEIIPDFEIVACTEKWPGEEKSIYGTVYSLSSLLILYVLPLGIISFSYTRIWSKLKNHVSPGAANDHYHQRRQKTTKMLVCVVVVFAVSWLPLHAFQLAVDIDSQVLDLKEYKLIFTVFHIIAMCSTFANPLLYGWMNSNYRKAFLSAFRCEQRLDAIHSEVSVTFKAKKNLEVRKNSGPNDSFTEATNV
In kind it is cell membranes, KAN-TS, Membrane. Particulars: kan-ts.

Data set [2] can be described thus: DRUGMATRIX: Phorbol Ester radioligand binding (ligand: [3H] PDBu). Type of data set: cell membranes, Mus musculus, ICR, Brain, Membrane. The following applies: Not Active = under 50% inhibition at 10 µM.
Data set [3] deals with Epidermal growth factor receptor (Homo sapiens, UniProt P00533). Put plainly: DRUGMATRIX: Protein Tyrosine Kinase, EGF Receptor enzyme inhibition (substrate: Poly(Glu:Tyr)). Type of data set: cell-based, Insect cells. The following applies: Not Active = under 50% inhibition at 10 µM.
Sequence of Epidermal growth factor receptor (P00533 whole entry): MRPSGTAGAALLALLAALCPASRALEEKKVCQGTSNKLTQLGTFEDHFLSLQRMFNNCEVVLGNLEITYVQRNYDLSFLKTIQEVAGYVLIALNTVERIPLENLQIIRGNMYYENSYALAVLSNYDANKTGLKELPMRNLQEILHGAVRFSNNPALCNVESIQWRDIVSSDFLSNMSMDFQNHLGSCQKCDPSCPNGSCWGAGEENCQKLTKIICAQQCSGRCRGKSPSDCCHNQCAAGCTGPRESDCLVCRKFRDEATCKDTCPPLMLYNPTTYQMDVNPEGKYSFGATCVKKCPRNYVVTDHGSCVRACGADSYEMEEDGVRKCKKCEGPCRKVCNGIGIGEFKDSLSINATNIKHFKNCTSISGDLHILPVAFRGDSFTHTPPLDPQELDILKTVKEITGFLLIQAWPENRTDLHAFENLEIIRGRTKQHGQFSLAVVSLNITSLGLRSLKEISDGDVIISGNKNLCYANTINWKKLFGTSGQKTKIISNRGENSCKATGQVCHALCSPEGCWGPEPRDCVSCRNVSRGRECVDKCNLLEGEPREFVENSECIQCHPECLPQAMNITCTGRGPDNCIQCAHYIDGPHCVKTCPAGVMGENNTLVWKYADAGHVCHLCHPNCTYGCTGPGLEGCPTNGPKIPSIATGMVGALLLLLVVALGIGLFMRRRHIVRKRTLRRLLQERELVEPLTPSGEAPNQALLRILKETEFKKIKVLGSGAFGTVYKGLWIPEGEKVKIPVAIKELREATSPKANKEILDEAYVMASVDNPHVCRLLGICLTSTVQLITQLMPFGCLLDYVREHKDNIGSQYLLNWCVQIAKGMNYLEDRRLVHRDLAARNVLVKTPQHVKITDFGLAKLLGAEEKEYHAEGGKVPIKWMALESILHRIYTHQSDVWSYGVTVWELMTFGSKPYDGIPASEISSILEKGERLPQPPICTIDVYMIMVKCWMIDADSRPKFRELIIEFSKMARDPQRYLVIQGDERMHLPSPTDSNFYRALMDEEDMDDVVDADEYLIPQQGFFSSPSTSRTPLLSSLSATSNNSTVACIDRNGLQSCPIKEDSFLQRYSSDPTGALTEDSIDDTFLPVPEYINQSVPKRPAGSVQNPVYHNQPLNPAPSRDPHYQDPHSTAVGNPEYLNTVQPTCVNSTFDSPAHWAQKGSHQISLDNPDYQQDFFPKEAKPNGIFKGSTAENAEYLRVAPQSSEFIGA
The target of data set [4] is Receptor tyrosine-protein kinase erbB-2 (Homo sapiens, UniProt P04626). Put plainly: biochemical. Type of data set: cell-based, Insect cells.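 Note: inhibition of HER2 kinase enzyme activity, measured with Poly(Glu:Tyr) as the phosphorylation substrate; in other assays of this panel Not Active means under 50% inhibition at 10 µM.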
Sequence of Receptor tyrosine-protein kinase erbB-2 (P04626 whole entry): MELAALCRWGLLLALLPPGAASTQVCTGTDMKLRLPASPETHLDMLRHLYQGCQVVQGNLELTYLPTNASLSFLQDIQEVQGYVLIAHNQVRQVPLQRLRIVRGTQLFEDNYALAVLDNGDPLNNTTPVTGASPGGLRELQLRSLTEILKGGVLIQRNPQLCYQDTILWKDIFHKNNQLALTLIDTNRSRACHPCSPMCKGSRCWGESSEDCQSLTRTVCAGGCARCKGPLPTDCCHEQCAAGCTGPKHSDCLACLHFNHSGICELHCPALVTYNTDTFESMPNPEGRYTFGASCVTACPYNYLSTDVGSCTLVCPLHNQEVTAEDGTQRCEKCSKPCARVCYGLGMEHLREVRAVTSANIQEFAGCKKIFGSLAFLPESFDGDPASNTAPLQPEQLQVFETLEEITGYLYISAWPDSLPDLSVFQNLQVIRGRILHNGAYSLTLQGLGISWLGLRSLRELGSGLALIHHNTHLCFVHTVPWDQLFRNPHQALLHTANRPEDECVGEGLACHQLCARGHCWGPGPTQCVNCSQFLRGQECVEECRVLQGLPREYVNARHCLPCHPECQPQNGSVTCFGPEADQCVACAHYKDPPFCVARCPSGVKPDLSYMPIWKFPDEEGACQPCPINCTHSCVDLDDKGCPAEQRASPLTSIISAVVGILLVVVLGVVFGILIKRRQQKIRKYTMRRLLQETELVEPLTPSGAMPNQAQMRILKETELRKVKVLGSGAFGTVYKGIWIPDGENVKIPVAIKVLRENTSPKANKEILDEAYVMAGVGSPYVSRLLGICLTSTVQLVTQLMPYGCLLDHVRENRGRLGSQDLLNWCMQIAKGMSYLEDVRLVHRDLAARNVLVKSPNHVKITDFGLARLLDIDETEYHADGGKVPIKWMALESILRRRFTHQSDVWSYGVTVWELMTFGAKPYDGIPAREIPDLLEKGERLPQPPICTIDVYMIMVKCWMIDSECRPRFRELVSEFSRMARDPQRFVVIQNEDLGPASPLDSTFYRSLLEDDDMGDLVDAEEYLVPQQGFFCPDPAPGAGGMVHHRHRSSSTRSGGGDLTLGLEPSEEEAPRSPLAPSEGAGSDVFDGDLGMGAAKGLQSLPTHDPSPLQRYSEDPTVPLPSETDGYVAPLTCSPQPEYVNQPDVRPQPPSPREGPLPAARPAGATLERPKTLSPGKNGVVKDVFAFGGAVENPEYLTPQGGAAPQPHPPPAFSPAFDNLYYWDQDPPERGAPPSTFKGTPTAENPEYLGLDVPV
The target in the next data set is Acetylcholinesterase (Homo sapiens, UniProt P22303). Nature of the data set: DRUGMATRIX: Acetylcholinesterase enzyme inhibition (substrate: acetylthiocholine). Type of data set: cell-based, HEK293. Particulars: hek293; Not Active = under 50% inhibition at 10 µM.
Sequence of Acetylcholinesterase (P22303 whole entry): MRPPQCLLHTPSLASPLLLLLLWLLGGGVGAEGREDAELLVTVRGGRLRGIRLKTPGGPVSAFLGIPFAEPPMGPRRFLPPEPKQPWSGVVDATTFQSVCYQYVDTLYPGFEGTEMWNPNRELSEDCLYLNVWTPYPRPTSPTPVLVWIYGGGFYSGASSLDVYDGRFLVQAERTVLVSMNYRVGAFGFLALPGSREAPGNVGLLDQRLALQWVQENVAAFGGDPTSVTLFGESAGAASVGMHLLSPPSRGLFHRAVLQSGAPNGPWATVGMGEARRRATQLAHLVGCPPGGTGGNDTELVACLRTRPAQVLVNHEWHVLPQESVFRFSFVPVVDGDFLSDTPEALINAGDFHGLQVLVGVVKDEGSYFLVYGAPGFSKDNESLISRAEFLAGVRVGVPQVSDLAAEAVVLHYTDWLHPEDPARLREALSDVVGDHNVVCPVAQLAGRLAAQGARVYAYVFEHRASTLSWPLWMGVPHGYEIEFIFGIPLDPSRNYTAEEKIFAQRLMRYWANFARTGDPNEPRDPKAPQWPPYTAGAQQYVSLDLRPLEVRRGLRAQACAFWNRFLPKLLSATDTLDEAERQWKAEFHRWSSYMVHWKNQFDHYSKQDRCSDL
The target in another data set is Cytochrome P450 2E1 (Homo sapiens, UniProt P05181). Particulars: bti-tn-5b1-4. Note: in other assays of this panel Not Active means under 50% inhibition at 10 µM.
Sequence of Cytochrome P450 2E1 (P05181 whole entry): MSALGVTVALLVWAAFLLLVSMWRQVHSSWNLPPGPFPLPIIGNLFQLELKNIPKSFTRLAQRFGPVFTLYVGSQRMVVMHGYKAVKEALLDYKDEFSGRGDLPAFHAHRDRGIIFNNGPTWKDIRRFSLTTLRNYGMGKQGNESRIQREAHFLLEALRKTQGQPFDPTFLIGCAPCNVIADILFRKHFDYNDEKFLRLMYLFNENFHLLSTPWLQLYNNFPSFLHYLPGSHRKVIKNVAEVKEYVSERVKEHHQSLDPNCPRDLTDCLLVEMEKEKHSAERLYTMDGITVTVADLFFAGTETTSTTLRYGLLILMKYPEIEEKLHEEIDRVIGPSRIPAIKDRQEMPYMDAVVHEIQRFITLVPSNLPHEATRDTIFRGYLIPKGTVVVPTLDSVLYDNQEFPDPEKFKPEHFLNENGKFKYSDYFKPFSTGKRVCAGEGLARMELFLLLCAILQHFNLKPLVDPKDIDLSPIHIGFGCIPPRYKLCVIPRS

Structures are written as SMILES.

For the compound `O=C(c1ccccc1C(F)(F)F)N1CCC(Cc2ccccc2)CC1`, the half-maximal inhibitory concentration (IC50) entry (against Substance-K receptor (cho); in data set [1]; in data set [2]; in data set [3] (insect cells); in data set [4] (insect cells); against Acetylcholinesterase) was “Not Active” throughout. At Cytochrome P450 2E1, the concentration for half-maximal inhibition (IC50) entry was “Not Active”. Besides, the inhibition constant (Ki) result (in data set [2]; at Cytochrome P450 2E1) was “Not Active” in each case.

With `O=C/C=C/c1ccccc1`, the IC50 entry (on Substance-K receptor (cho); in data set [1]; in data set [2]; in data set [3] (insect cells); in data set [4] (insect cells); against Acetylcholinesterase) was “Not Active” throughout. The 50% inhibitory concentration (IC50) entry against Cytochrome P450 2E1 is “Not Active”. Moreover, the inhibitory constant (Ki) result (in data set [2]; on Cytochrome P450 2E1) was “Not Active” in each case.

As for `Nc1ccc2c3c(cccc13)C(=O)NC2=O`, the IC50 entry (at Substance-K receptor (cho); in data set [1]; in data set [2]; in data set [3] (insect cells); in data set [4] (insect cells); on Acetylcholinesterase) was “Not Active” each time. Further, on Cytochrome P450 2E1, the 50% inhibitory concentration (IC50) result is given as “Not Active”. For the same compound, the inhibition constant (Ki) result (in data set [2]; at Cytochrome P450 2E1) was “Not Active” throughout.

In the case of `COc1ccc(C(=O)N2CCCC2=O)cc1`, the half-inhibitory concentration (IC50) result (against Substance-K receptor (cho); in data set [1]; in data set [2]; in data set [3] (insect cells); in data set [4] (insect cells); against Acetylcholinesterase) was “Not Active” in each case. In addition, on Cytochrome P450 2E1, the half-inhibitory concentration (IC50) entry is reported as “Not Active”. The Ki result (in data set [2]; at Cytochrome P450 2E1) was “Not Active” in each case.

`O=c1cnn([C@@H]2O[C@H](CO)[C@@H](O)[C@H]2O)c(=O)[nH]1` [6-AZAURIDINE]: the IC50 result (against Substance-K receptor (cho); in data set [1]; in data set [2]; in data set [3] (insect cells); in data set [4] (insect cells); against Acetylcholinesterase) was “Not Active” in each case. The IC50 result on Cytochrome P450 2E1 is “Not Active”. Further, the inhibition constant (Ki) entry (in data set [2]; at Cytochrome P450 2E1) was “Not Active” throughout.

`CC[C@H](C)[C@H]1O[C@]2(C=C[C@@H]1C)C[C@@H]1C[C@@H](C/C=C(\C)[C@@H](O[C@H]3C[C@H](OC)[C@@H](O[C@H]4C[C@H](OC)[C@@H](O)[C@H](C)O4)[C@H](C)O3)[C@@H](C)/C=C/C=C3\CO[C@@H]4[C@H](O)C(C)=C[C@@H](C(=O)O1)[C@]34O)O2.CO[C@H]1C[C@H](O[C@H]2[C@H](C)O[C@@H](O[C@@H]3/C(C)=C/C[C@@H]4C[C@@H](C[C@]5(C=C[C@H](C)[C@@H](C(C)C)O5)O4)OC(=O)[C@@H]4C=C(C)[C@@H](O)[C@H]5OC/C(=C\C=C\[C@@H]3C)[C@]54O)C[C@@H]2OC)O[C@@H](C)[C@@H]1O` [ABAMECTIN]: the IC50 entry (on Substance-K receptor (cho); in data set [1]; in data set [2]; in data set [3] (insect cells); in data set [4] (insect cells); on Acetylcholinesterase) was “Not Active” throughout. The IC50 result on Cytochrome P450 2E1 is on record as “Not Active”. Also, the inhibition constant Ki entry (in data set [2]; on Cytochrome P450 2E1) was “Not Active” each time.

Take `NCCCC(O)(P(=O)(O)O)P(=O)(O)O` [ALENDRONIC ACID]: the IC50 entry (on Substance-K receptor (cho); in data set [1]; in data set [2]; in data set [3] (insect cells); in data set [4] (insect cells); on Acetylcholinesterase) was “Not Active” throughout. In addition, the IC50 entry on Cytochrome P450 2E1 is recorded as “Not Active”. The Ki result (in data set [2]; on Cytochrome P450 2E1) was “Not Active” each time.

`Cc1nnc2n1-c1ccc(Cl)cc1C(c1ccccc1)=NC2` [ALPRAZOLAM]: the 50% inhibitory concentration (IC50) result (against Substance-K receptor (cho); in data set [1]; in data set [2]; in data set [3] (insect cells); in data set [4] (insect cells); at Acetylcholinesterase) was “Not Active” in each case. Also, the IC50 result on Cytochrome P450 2E1 is on record as “Not Active”. Also, the Ki entry (in data set [2]; on Cytochrome P450 2E1) was “Not Active” in each case.

For `COc1ccc2cc3[n+](cc2c1OC)CCc1cc2c(cc1-3)OCO2.[Cl-]` [BERBERINE CHLORIDE], the IC50 entry (against Substance-K receptor (cho); in data set [1]; in data set [2]; in data set [3] (insect cells); in data set [4] (insect cells); on Cytochrome P450 2E1) was “Not Active” each time. In addition, the Ki result (in data set [2]; at Cytochrome P450 2E1) was “Not Active” each time.

On to `COc1cc([C@@H]2c3cc4c(cc3[C@@H](O[C@@H]3O[C@@H]5CO[C@@H](C)O[C@H]5[C@H](O)[C@H]3O)[C@H]3COC(=O)[C@H]23)OCO4)cc(OC)c1O` [ETOPOSIDE], for which the 50% inhibitory concentration (IC50) result (against Substance-K receptor (cho); in data set [1]; in data set [2]; in data set [3] (insect cells); in data set [4] (insect cells); at Acetylcholinesterase) was “Not Active” throughout. Also, the inhibition constant (Ki) result in data set [2] is listed as “Not Active”.

Take `COc1ccc2c3c1O[C@H]1C[C@@H](O)C=C[C@@]31CCN(C)C2` [GALANTAMINE]: the half-maximal inhibitory concentration (IC50) result (against Substance-K receptor (cho); in data set [1]; in data set [2]; in data set [3] (insect cells); in data set [4] (insect cells)) was “Not Active” throughout. Also, in data set [2], the Ki entry was “Not Active”.

Regarding `CC(C)=CCC/C(C)=C/CO` [GERANIOL], the IC50 result (against Substance-K receptor (cho); in data set [1]; in data set [2]; in data set [3] (insect cells); in data set [4] (insect cells); on Acetylcholinesterase) was “Not Active” each time. The inhibition constant Ki result in data set [2] was “Not Active”.

For the compound `Oc1c(Cl)cc(Cl)c(Cl)c1Cc1c(O)c(Cl)cc(Cl)c1Cl` [HEXACHLOROPHENE], the half-inhibitory concentration (IC50) at Substance-K receptor (read-out: IC50) was 4140 nM; in data set [1] it was “Not Active”; in data set [2], “Not Active”; in data set [3] (read-out: IC50) it was 749 nM; in data set [4] (read-out: IC50) it was 3320 nM; on Cytochrome P450 2E1 it was “Not Active”. In addition, the Ki was 1380 nM at Substance-K receptor (read-out: Ki), “Not Active” in data set [2] and “Not Active” on Cytochrome P450 2E1.

For the compound `CC(=O)[C@@]1(O)CC[C@H]2[C@@H]3CCC4=CC(=O)CC[C@]4(C)[C@H]3CC[C@@]21C` [HYDROXYPROGESTERONE], the IC50 result (against Substance-K receptor (cho); in data set [1]; in data set [2]; in data set [3] (insect cells); in data set [4] (insect cells); on Acetylcholinesterase) was “Not Active” throughout. The Ki result in data set [2] was “Not Active”.

For `O=c1cc(N2CCOCC2)oc2c(-c3ccccc3)cccc12` [LY-294002], the IC50 result (on Substance-K receptor (cho); in data set [1]; in data set [2]; in data set [4] (insect cells); at Acetylcholinesterase; against Cytochrome P450 2E1) was “Not Active” each time. In addition, the Ki result (in data set [2]; on Cytochrome P450 2E1) was “Not Active” throughout.

For the compound `CC(C)NCC(O)COc1cccc2[nH]ccc12` (stereo not drawn) [PINDOLOL], the IC50 result (against Substance-K receptor (cho); in data set [1]; in data set [2]; in data set [3] (insect cells); in data set [4] (insect cells); against Acetylcholinesterase) was “Not Active” in each case. Besides, the Ki result in data set [2] is listed as “Not Active”.

Turning to `CC(C)c1cccc(C(C)C)c1O` [PROPOFOL], the IC50 result (on Substance-K receptor (cho); in data set [1]; in data set [2]; in data set [3] (insect cells); in data set [4] (insect cells); on Acetylcholinesterase) was “Not Active” in each case. For the same compound, the Ki entry in data set [2] is “Not Active”.
